Structures can show the parent of a compound that is named as a salt.
Tests used:
[1] = test system: hyperalgesia induced in the rat by loose ligation of the sciatic nerve; assay: Paw pressure test, rat mononeuropathy (loose ligation of the sciatic nerve); format: in vivo
Description: In particular, a racemic mixture of the compounds of formula (I) in the form of sodium salt, in which the stereogenic centre deriving from camosine is in the L configuration, was subjected to in vivo pharmacological tests which have enabled their surprising analgesic effects to be discovered.
The observed effect is greater, albeit slightly, than that obtained by tramadol 100 mg kg^−1 per os and pregabalin 200 mg kg^−1 per os, in the same experimental model.

[2] = test system: osteoarthritis induced pain (MIA) in the rat; assay: Paw pressure test, osteoarthritis induced pain (intra-articular monosodium iodoacetate); format: in vivo; conditions: for PAW PRESSURE, AFTER TREATMENT (15 min) / PAW PRESSURE, AFTER TREATMENT 30 min / PAW PRESSURE, Pre-test: MIA rats
Description: At the same doses of 10 and 30 mg kg^−1 per os, the racemic mixture under study was also found to be effective in reversing the pain threshold reduction induced by the intra-articular Injection of monoiodide acetate at a dose of 2 mg in a 25 μl volume (osteoarthritis model). In this case the effect is statistically significant up to 45 minutes after administration at the lower dose and up to 60 minutes at the three-fold dose.

[3] = test system: oxaliplatin induced hyperalgesia in the rat; assay: Paw pressure test, oxaliplatin-induced hyperalgesia; format: in vivo; conditions: oxaliplatin rats
[4] = test system: motor coordination of the mouse; assay: Rotarod test; format: in vivo
From the text: (§1) In particular, in the case of the rotarod, the number of falls from the rotating rod progressively decreases with repeated falls. This confirms that the observed anti-hyperalgesic effects are not due to a change in the animal's behaviour.

[5] = test system: spontaneous motility and exploratory activity of the mouse; assay: Hole-board test; format: in vivo
From the text: as §1

[6] = test system: pain threshold of the mouse; assay: Hot plate test (acute thermal stimulus); format: in vivo; conditions: for HOT PLATE TEST, 15 min / HOT PLATE TEST, 30 min / HOT PLATE TEST, 45 min / HOT PLATE TEST, 60 min / HOT PLATE TEST, Pre-test: mice
[7] = test system: acetic acid induced writhes in mice; assay: Abdominal writhing test (acetic acid 0.6%); format: in vivo, mouse
Description: The 10 mg kg^−1 per os dose was also found to be effective.

[8] = 30 mg kg^−1 per os, 30 min before the test

COc1cccc(C2(O)CCCCC2CN(C)C)c1 (stereo not drawn) [TRAMADOL, tramadol, reference compound]
PAW PRESSURE, AFTER TREATMENT (15 min) ([1]; 100 mg/kg per os, left paw): 72.3 ± 3.0^ g
PAW PRESSURE, BEFORE TREATMENT ([1]; 100 mg/kg per os, left paw): 58.3 ± 3.1 g
PAW PRESSURE, AFTER TREATMENT (15 min) ([1]; 100 mg/kg per os, right paw): 55.8 ± 2.5 g
PAW PRESSURE, BEFORE TREATMENT ([1]; 100 mg/kg per os, right paw): 25.7 ± 2.2 g

CC(C)C[C@H](CN)CC(=O)O [PREGABALIN, pregabalin, reference compound]
PAW PRESSURE, AFTER TREATMENT (15 min) ([1]; 200 mg/kg per os, left paw): 70.4 ± 3.5 g
PAW PRESSURE, BEFORE TREATMENT ([1]; 200 mg/kg per os, left paw): 57.3 ± 3.5 g
PAW PRESSURE, AFTER TREATMENT (15 min) ([1]; 200 mg/kg per os, right paw): 58.2 ± 3.1 g
PAW PRESSURE, BEFORE TREATMENT ([1]; 200 mg/kg per os, right paw): 26.3 ± 3.0 g

O=C(CCCCC1CCSS1)NCCC(=O)NC(Cc1cnc[nH]1)C(=O)O (racemic) (as salt: sodium) [Compound 2]
melting point: > 213 °C (dec.)

O=C(CCCCC1CCSS1)NCCC(=O)NC(Cc1cnc[nH]1)C(=O)O (racemic) [Compound 2]
onset of the effect after administration ([1]; 10 mg/kg per os): 15 min
time up to which the effect remained unchanged ([1]; 10 mg/kg per os): up to 45 minutes
PAW PRESSURE, AFTER TREATMENT (15 min) ([1]; 10 mg/kg per os, left paw): 69.5 ± 4.4 g
PAW PRESSURE, BEFORE TREATMENT ([1]; 10 mg/kg per os, left paw): 61.9 ± 3.4 g
reversal of hyperalgesia ([1]; 10 mg/kg per os, ligation 14 days earlier): able to reverse, in a statistically significant manner
PAW PRESSURE, AFTER TREATMENT (15 min) ([1]; 10 mg/kg per os, right paw): 48.3 ± 3.5 g
PAW PRESSURE, BEFORE TREATMENT ([1]; 10 mg/kg per os, right paw): 25.2 ± 3.3 g
PAW PRESSURE, AFTER TREATMENT (15 min) ([1]; 30 mg/kg per os, left paw): 81.6 ± 3.1 g
PAW PRESSURE, BEFORE TREATMENT ([1]; 30 mg/kg per os, left paw): 59.2 ± 3.8 g
PAW PRESSURE, AFTER TREATMENT (15 min) ([1]; 30 mg/kg per os, right paw): 66.3 ± 3.3 g
PAW PRESSURE, BEFORE TREATMENT ([1]; 30 mg/kg per os, right paw): 24.8 ± 3.2 g
PAW PRESSURE, AFTER TREATMENT (15 min) ([2]; 10 mg/kg p.o.): 49.3 ± 2.5 g
PAW PRESSURE, AFTER TREATMENT 30 min ([2]; 10 mg/kg p.o.): 45.3 ± 3.9 g
PAW PRESSURE, Pre-test ([2]; 10 mg/kg p.o.): 24.5 ± 2.1 g
PAW PRESSURE, AFTER TREATMENT (15 min) ([2]; 30 mg/kg p.o.): 59.1 ± 3.3 g
PAW PRESSURE, AFTER TREATMENT 30 min ([2]; 30 mg/kg p.o.): 54.7 ± 3.6 g
PAW PRESSURE, Pre-test ([2]; 30 mg/kg p.o.): 24.4 ± 2.5 g
time after administration up to which the effect is statistically significant ([2]; lower dose (10 mg kg^−1 per os)): up to 45 minutes
time after administration up to which the effect is statistically significant ([2]; three-fold dose (30 mg kg^−1 per os)): up to 60 minutes
PAW PRESSURE TEST, AFTER TREATMENT 15 min ([3]; 10 mg/kg per os): 34.6 ± 3.1^ g
PAW PRESSURE TEST, AFTER TREATMENT 30 min ([3]; 10 mg/kg per os): 36.7 ± 3.5^ g
PAW PRESSURE TEST, AFTER TREATMENT 45 min ([3]; 10 mg/kg per os): 31.9 ± 3.5 g
PAW PRESSURE TEST, AFTER TREATMENT 60 min ([3]; 10 mg/kg per os): 26.9 ± 2.8 g
PAW PRESSURE TEST, Pre-test ([3]; 10 mg/kg per os): 23.8 ± 3.6 g
PAW PRESSURE TEST, AFTER TREATMENT 15 min ([3]; 30 mg/kg per os): 43.6 ± 3.9 g
PAW PRESSURE TEST, AFTER TREATMENT 30 min ([3]; 30 mg/kg per os): 48.9 ± 3.6 g
PAW PRESSURE TEST, AFTER TREATMENT 45 min ([3]; 30 mg/kg per os): 41.6 ± 3.6 g
PAW PRESSURE TEST, AFTER TREATMENT 60 min ([3]; 30 mg/kg per os): 31.7 ± 3.3 g
PAW PRESSURE TEST, Pre-test ([3]; 30 mg/kg per os): 22.9 ± 3.5 g
change of behavioural parameters: motor coordination (rotarod) ([4]; 30 mg kg^−1 per os): does not alter the behavioural parameters
FALLS IN 30 SEC, 15 min ([4]; 30 mg/kg per os, mice, 15 min): 3.9 ± 0.3
FALLS IN 30 SEC, 30 min ([4]; 30 mg/kg per os, mice, 30 min): 1.3 ± 0.3
FALLS IN 30 SEC, 45 min ([4]; 30 mg/kg per os, mice, 45 min): 0.8 ± 0.2
FALLS IN 30 SEC, Pre-test ([4]; 30 mg/kg per os, mice, pre-test): 5.2 ± 0.3
change of behavioural parameters: spontaneous motility and exploratory activity (hole-board) ([5]; 30 mg kg^−1 per os): does not alter the behavioural parameters
No. of inspections ([5]; 30 mg/kg per os, mice): 37.8 ± 7.5
No. of movements ([5]; 30 mg/kg per os, mice): 30.3 ± 7.7
HOT PLATE TEST, 15 min ([6]; 1 mg/kg per os): 18.7 ± 2.7
HOT PLATE TEST, 30 min ([6]; 1 mg/kg per os): 25.1 ± 2.7
HOT PLATE TEST, 45 min ([6]; 1 mg/kg per os): 14.0 ± 2.0
HOT PLATE TEST, 60 min ([6]; 1 mg/kg per os): 15.7 ± 2.6
HOT PLATE TEST, Pre-test ([6]; 1 mg/kg per os): 15.7 ± 0.8
HOT PLATE TEST, 15 min ([6]; 10 mg/kg per os): 25.9 ± 2.8
HOT PLATE TEST, 30 min ([6]; 10 mg/kg per os): 22.3 ± 2.6
HOT PLATE TEST, 45 min ([6]; 10 mg/kg per os): 19.3 ± 1.9
HOT PLATE TEST, 60 min ([6]; 10 mg/kg per os): 17.4 ± 0.8
HOT PLATE TEST, Pre-test ([6]; 10 mg/kg per os): 15.3 ± 0.9
HOT PLATE TEST, 15 min ([6]; 30 mg/kg per os): 29.7 ± 2.8
HOT PLATE TEST, 30 min ([6]; 30 mg/kg per os): 26.0 ± 2.7
HOT PLATE TEST, 45 min ([6]; 30 mg/kg per os): 20.3 ± 2.9
HOT PLATE TEST, 60 min ([6]; 30 mg/kg per os): 18.7 ± 2.1
HOT PLATE TEST, Pre-test ([6]; 30 mg/kg per os): 15.7 ± 1.3
rise of the pain threshold ([6]; dose range between 1 and 30 mg kg^−1 per os): able to raise the pain threshold in a dose-dependent manner
no. of writhes ([7]; 1 mg kg^−1 per os, 30 min before the test): 28.5 ± 2.8
no. of writhes ([7]; 10 mg kg^−1 per os, 30 min before the test): 21.8 ± 3.1
no. of writhes ([7]; 30 mg kg^−1 per os with naloxone 1 mg kg^−1 i.p. 15 min before): 13.6 ± 3.0
no. of writhes [7, 8]: 12.7 ± 2.6
antagonism of the analgesia by naloxone ([7]; 30 mg kg^−1 per os, naloxone 1 mg kg^−1 i.p.): not antagonized by the opioid antagonist naloxone

CC(C)Cc1ccc(C(C)C(=O)O)cc1 (stereo not drawn) [IBUPROFEN, ibuprofen, reference compound]
no. of writhes [7, 8]: 20.3 ± 2.2
no. of writhes ([7]; 100 mg kg^−1 per os, 30 min before the test): 13.5 ± 2.0

— patent US20130072533A1, “COMPOUNDS WITH BOTH ANALGESIC AND ANTI-HYPERALGESIC EFFICACY” (priority 2010, published 2013)
